Experimental findings from the OligoGym collection are described below.

The target in series [1] is EGFR. In words: HEK293-TLR7, 100 nM ASO, then resiquimod.
The target of series [2] is EGFR. In words: HEK293-TLR8, 100 nM ASO, then resiquimod.
Series [3] concerns the target CDKN2B-AS1. In words: HEK293-TLR7, 100 nM ASO, then resiquimod.
In series [4] the target is CDKN2B-AS1. The series is described as follows: HEK293-TLR8, 100 nM ASO, then resiquimod.

Strand notation (5' to 3'): a small letter for the sugar, then the base; units joined by * are phosphorothioate-linked, units joined directly phosphodiester-linked; [ ] holds rarer units or linkages, { } end groups; capitals alone tell only the bases. HELM strings list units from the 5' end as sugar, base in round brackets, then linkage (d deoxyribose, r ribose, m 2'-O-methyl, p phosphodiester). [sp] = phosphorothioate linkage; d = 2'-deoxy (DNA); m = 2'-O-methyl

Regarding “mG*mG*mG*mU*mA*dT*dC*dG*dA*dA*dA*dG*dA*dG*dT*mC*mU*mG*mG*mA”, in series [1], the TLR7 signal (NF-kB luciferase) (% of resiquimod alone) amounted to 27.1. Besides, the TLR8 potentiation (NF-kB luciferase) (fold of resiquimod alone) in series [2] is 0.91.

Consider “mA*mG*mU*mA*mA*dA*dA*dA*dG*dC*dT*dT*dT*dT*dG*mA*mA*mG*mU*mG”, for which the TLR7 signal (NF-kB luciferase) (% of resiquimod alone) in series [1] is 48.3. Besides, the TLR8 potentiation (NF-kB luciferase) (fold of resiquimod alone) in series [2] amounted to 2.7.

Turning to “mG*mU*mA*mC*mU*dC*dG*dT*dC*dG*dG*dC*dA*dT*dC*mC*mA*mC*mC*mA”, in series [1], the TLR7 signal (NF-kB luciferase) (% of resiquimod alone) came to 31.5. The TLR8 potentiation (NF-kB luciferase) (fold of resiquimod alone) in series [2] worked out at 1.25.

As to “mA*mA*mG*mG*mC*dC*dC*dT*dT*dC*dG*dC*dA*dC*dT*mU*mC*mU*mU*mA”, the TLR7 signal (NF-kB luciferase) (% of resiquimod alone) in series [1] stood at 31.2. In series [2], the TLR8 potentiation (NF-kB luciferase) (fold of resiquimod alone) was determined as 1.49.

“RNA1{m(A)[sp].m(A)[sp].m(A)[sp].m(G)[sp].m(C)[sp].d(A)[sp].d(G)[sp].d(T)[sp].d(C)[sp].d(T)[sp].d(C)[sp].d(C)[sp].d(A)[sp].d(T)[sp].d(G)[sp].m(U)[sp].m(C)[sp].m(C)[sp].m(C)[sp].m(A)}$$$$” showed a TLR7 signal (NF-kB luciferase) (% of resiquimod alone) in series [3] of 27.2. In series [4], the TLR8 potentiation (NF-kB luciferase) (fold of resiquimod alone) turned out to be 1.9.

The substance “RNA1{m(G)[sp].m(U)[sp].m(C)[sp].m(C)[sp].m(C)[sp].d(A)[sp].d(G)[sp].d(G)[sp].d(C)[sp].d(C)[sp].d(T)[sp].d(C)[sp].d(C)[sp].d(A)[sp].d(G)[sp].m(U)[sp].m(G)[sp].m(U)[sp].m(C)[sp].m(U)}$$$$” came in with a TLR7 signal (NF-kB luciferase) (% of resiquimod alone) in series [3] of 19. The TLR8 potentiation (NF-kB luciferase) (fold of resiquimod alone) in series [4] worked out at 1.05.

As for “RNA1{m(G)[sp].m(G)[sp].m(A)[sp].m(G)[sp].m(A)[sp].d(T)[sp].d(C)[sp].d(A)[sp].d(G)[sp].d(A)[sp].d(T)[sp].d(G)[sp].d(A)[sp].d(G)[sp].d(A)[sp].m(G)[sp].m(G)[sp].m(A)[sp].m(G)[sp].m(C)}$$$$”, the TLR7 signal (NF-kB luciferase) (% of resiquimod alone) in series [3] came out at 26.3. Further, the TLR8 potentiation (NF-kB luciferase) (fold of resiquimod alone) in series [4] stood at 1.05.

In series [3], “RNA1{m(A)[sp].m(A)[sp].m(G)[sp].m(A)[sp].m(U)[sp].d(T)[sp].d(A)[sp].d(T)[sp].d(C)[sp].d(T)[sp].d(T)[sp].d(C)[sp].d(T)[sp].d(T)[sp].d(T)[sp].m(U)[sp].m(A)[sp].m(A)[sp].m(U)[sp].m(U)}$$$$” yielded a TLR7 signal (NF-kB luciferase) (% of resiquimod alone) of 42.1. Also, in series [4], the TLR8 potentiation (NF-kB luciferase) (fold of resiquimod alone) was 2.91.

Turning to “RNA1{m(G)[sp].m(G)[sp].m(U)[sp].m(G)[sp].m(G)[sp].d(C)[sp].d(C)[sp].d(A)[sp].d(C)[sp].d(A)[sp].d(G)[sp].d(G)[sp].d(C)[sp].d(A)[sp].d(A)[sp].m(C)[sp].m(G)[sp].m(U)[sp].m(C)[sp].m(A)}$$$$”, the TLR7 signal (NF-kB luciferase) (% of resiquimod alone) in series [3] came out at 39.1. In series [4], the TLR8 potentiation (NF-kB luciferase) (fold of resiquimod alone) was determined as 0.8.

For the substance “RNA1{m(G)[sp].m(G)[sp].m(A)[sp].m(U)[sp].m(U)[sp].d(A)[sp].d(A)[sp].d(A)[sp].d(A)[sp].d(C)[sp].d(A)[sp].d(G)[sp].d(A)[sp].d(T)[sp].d(T)[sp].m(A)[sp].m(A)[sp].m(U)[sp].m(A)[sp].m(C)}$$$$”, in series [3], the TLR7 signal (NF-kB luciferase) (% of resiquimod alone) turned out to be 27.2. Also, the TLR8 potentiation (NF-kB luciferase) (fold of resiquimod alone) in series [4] worked out at 1.16.

Regarding “RNA1{m(U)[sp].m(A)[sp].m(U)[sp].m(U)[sp].m(U)[sp].d(C)[sp].d(C)[sp].d(A)[sp].d(C)[sp].d(A)[sp].d(T)[sp].d(G)[sp].d(C)[sp].d(C)[sp].d(C)[sp].m(A)[sp].m(G)[sp].m(U)[sp].m(G)[sp].m(U)}$$$$”, the TLR7 signal (NF-kB luciferase) (% of resiquimod alone) in series [3] was 30.5. Moreover, the TLR8 potentiation (NF-kB luciferase) (fold of resiquimod alone) in series [4] amounted to 2.77.

In the case of “RNA1{m(G)[sp].m(U)[sp].m(G)[sp].m(G)[sp].m(U)[sp].d(T)[sp].d(A)[sp].d(A)[sp].d(G)[sp].d(T)[sp].d(A)[sp].d(C)[sp].d(A)[sp].d(T)[sp].d(G)[sp].m(A)[sp].m(G)[sp].m(C)[sp].m(U)[sp].m(C)}$$$$”, the TLR7 signal (NF-kB luciferase) (% of resiquimod alone) in series [3] stood at 21.6. The TLR8 potentiation (NF-kB luciferase) (fold of resiquimod alone) in series [4] stood at 0.59.

Consider “RNA1{m(G)[sp].m(U)[sp].m(C)[sp].m(U)[sp].m(C)[sp].d(T)[sp].d(A)[sp].d(C)[sp].d(T)[sp].d(G)[sp].d(T)[sp].d(T)[sp].d(A)[sp].d(C)[sp].d(C)[sp].m(U)[sp].m(C)[sp].m(U)[sp].m(G)[sp].m(A)}$$$$”, for which the TLR7 signal (NF-kB luciferase) (% of resiquimod alone) in series [3] amounted to 19.2. In addition, the TLR8 potentiation (NF-kB luciferase) (fold of resiquimod alone) in series [4] worked out at 2.41.
